In series [1] the test system is DOX-induced cardio and hepatotoxicities. The experiment in a line: Doxorubicin (DOX)-induced acute heart failure animal model. In kind it is in vivo, mice. The protocol:
This animal model is associated with an increase in oxidative stress and causes significant hepatopathy after DOX injection.
Specifically, 20-week-old male mice were injected intraperitoneally once with 20 mg/kg of DOX. […] Mortality was observed up to 10 days after DOX administration. After 10 days, the mice were sacrificed and the expressions of enzymes in the heart and liver tissues were analyzed. The cardiac function of the mice was also measured by echocardiogram.

Series [2] can be described thus: H2O2 scavenging by PVAX or MnP-PVAX microparticles (amplex red assay). The note with it: 10 μM H2O2, 1 mg microparticles, 37° C., 6 or 24 h. Here is the method:
After short centrifugation, the concentration of H2O2 in the supernatant was measured using an amplex red assay (Invitrogen, US).

Series [3] concerns RAW 264.7 cells. In words: NO production in LPS-treated cells (Griess reaction). In kind it is cell-based. The note with it: LPS-treated RAW 264.7, Griess. The protocol:
The concentration of NO was determined using a colorimetric assay based on the Griess reaction. 50 μL of cell culture medium was collected and given 100 μL of Griess reagent (6 mg/mL) at room temperature for 10 min, and then the NO concentration was determined by measuring the absorbance at 540 nm using a microplate reader (Synergy MX, BioTek Instruments, US). The NO standard curve was constructed using known concentrations of sodium nitrite.

For series [4], the system named is RAW 264.7 cells activated with PMA. In words: ROS production in PMA-activated cells (DCFH-DA, flow cytometry). The note with it: PMA-stimulated; VA 0.5 mM, PVAX 100 μg. It counts as cell-based. The protocol:
The cells were treated with […] to stimulate the production of reactive oxygen species in the cells. After 4 hours, the cells were treated with DCFH-DA (dichlorofluorescin-diacetate), after which DCF ([…]) (a marker of intracellular oxidative stress) was analyzed using a flow cytometer (Becton Dickinson, US).

The subject of series [5] is OVA-induced allergic airway inflammation. In words: Mouse model of ovalbumin (OVA)-induced allergic asthma. In kind it is in vivo, BALB/c mice. The following applies: OVA-sensitized and challenged mice, ELISA. The protocol: On days 15, 16 and 17, mice were challenged intranasally with 50 μg of OVA. […] A sham group was given PBS only. On day 19, the mice were sacrificed and lung lobes were isolated along with the trachea. Lungs were also lavaged with 500 μL of PBS introduced through the trachea. BALF (bronchiolavage fluid) was centrifuged at 300×g for 5 min, and cells were rinsed and resuspended with PBS. Aliquots of the cell suspension were applied to slides by Cytospin (Hanil, Korea) at 500×g for 5 minutes allowed to air dry and stained with modified Wright's stain (Hema-3, Fisher Scientific). The numbers of macrophages, eosinophils, neutrophils and lymphocytes were determined morphologically and a minimum of 200 cells per slide were counted under the microscope (Eclipse, Nikon, Japan). The level of TNF-α in the supernatant of BALF was measured with an ELISA kit as advised by manufacturer (eBioScience, San Diego, Calif.). Lungs were perfused with PBS, removed and fixed in 4% buffered formalin. Lungs were embedded in paraffin and serial paraffin sections (3 μm) were cut. The sections were stained with hematoxylin (Yeongdong Pharma, Korea) and eosin (Showa Chemicals, Japan). Results are illustrated in FIGS. 49-51.

Series [6] in a line: Particle stability versus loading ratio. It counts as physicochemical. From the text: However, PVAX allowed greater ratio of VA-CHDM (up to 60%), providing greater therapeutic effects without significant compromise of the stability.
Setting [7] is: echocardiogram, DOX-treated mice.

With `COc1cccc2c1C(=O)c1c(O)c3c(c(O)c1C2=O)C[C@@](O)(C(=O)CO)C[C@@H]3O[C@H]1C[C@H](N)[C@H](O)[C@H](C)O1` [DOX, doxorubicin], in series [1] (10 days after DOX, p<0.05), the survival came to 35%. Further, in series [1] (setting [7]), the “ejection fraction (EF), mean” value was 25.54 and the “fractional shortening (FS), mean” value was 50.41. In series [1] (observation up to 10 days after DOX 20 mg/kg i.p., PVAX daily), this molecule returned a mortality rate of 65%.
For the molecule `C1=Cc2cc3ccc(cc4nc(cc5ccc(cc1n2)[nH]5)C=C4)[nH]3.[Mn]` [MnP, manganese porphyrin], the H2O2 scavenging activity entry in series [2] was “H2O2 scavenging activity in a time-dependent manner”. The “inhibitory effects on NO production” value in series [3] was “inhibitory effects on NO production, not significant”.
In the case of `COc1cc(CO)ccc1O` [VA, 4-(hydroxymethyl)-2-methoxyphenol], the “intracellular ROS generation (DCF fluorescence)” value in series [4] is “only slightly suppressed ROS generation”. In series [5], the “expression of TNF-α in BALF” value is listed as “suppressed the expression of TNF-α”. For the same molecule, the “inhibitory effects on NO production” value in series [3] is recorded as “inhibitory effects on NO production, not significant”.
Regarding “poly(p-hydroxy-benzyl alcohol (HBA)-oxalic acid) copolymer [HPOX]”, the “particle stability / feasibility of loading” value in series [6] is recorded as “not feasible due to instability of the particles”.

For the origin of these results see US9844564B2 (Industrial Cooperation Foundation Chonbuk National …, priority 2012, dated 2017).
